From the supplement of paper PMC10307832

Legend:
Assay in all cases: relative viability (nuclei count vs DMSO), 5 days (fraction); higher = more cells survive
[1] = compound: CC1=CC=C(C=C1)C(=O)CN2C3=C(CCCC3)SC2=N [Pifithrin_alpha] + COc1cccc2cc(-c3nc([C@H]4CC[C@H](C(=O)O)CC4)n4ncnc(N)c34)[nH]c12 [OSI-027] (partner 0.5 µM)
In short: (§1)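 Relative viability is defined as nuclei in treated wells over nuclei in vehicle wells. Duplicate plates were run and medians reported. Lung cancer cell lines in 1536-well plates were dosed by pin tool one day after seeding, with one drug or with a fixed anchor-drug dose plus five library-drug doses (not always all listed) in √10 steps, and nuclei were counted after 5 days.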

[2] = compound: CC1=CC=C(C=C1)C(=O)CN2C3=C(CCCC3)SC2=N [Pifithrin_alpha] + Cc1nc(Nc2ncc(C(=O)Nc3c(C)cccc3Cl)s2)cc(N2CCN(CCO)CC2)n1 [Dasatinib] (partner 0.075 µM)
In short: as §1

Axitinib + Trametinib = compound: CNC(=O)c1ccccc1Sc1ccc2c(/C=C/c3ccccn3)n[nH]c2c1 [Axitinib] + CC(=O)Nc1cccc(-n2c(=O)n(C3CC3)c(=O)c3c(Nc4ccc(I)cc4F)n(C)c(=O)c(C)c32)c1 [Trametinib] (partner 0.02 µM)
In short: as §1

Axitinib + Phenformin = compound: CNC(=O)c1ccccc1Sc1ccc2c(/C=C/c3ccccn3)n[nH]c2c1 [Axitinib] + N=C(N)NC(=N)NCCc1ccccc1 [Phenformin] (partner 250 µM)
In short: as §1

| Cell Line | relative viability ([1]; first compound 1 µM) | relative viability ([1]; first compound 3.162 µM) | relative viability ([1]; first compound 10 µM) | relative viability ([1]; first compound 31.62 µM) | relative viability ([1]; first compound 100 µM) | relative viability ([2]; first compound 1 µM) | relative viability ([2]; first compound 3.162 µM) | relative viability ([2]; first compound 10 µM) | relative viability ([2]; first compound 100 µM) | relative viability (Axitinib + Trametinib; first compound 0.005 µM) | relative viability (Axitinib + Trametinib; first compound 0.01581 µM) | relative viability (Axitinib + Trametinib; first compound 0.05 µM) | relative viability (Axitinib + Trametinib; first compound 0.1581 µM) | relative viability (Axitinib + Trametinib; first compound 0.5 µM) | relative viability (Axitinib + Phenformin; first compound 0.005 µM) | relative viability (Axitinib + Phenformin; first compound 0.01581 µM) | relative viability (Axitinib + Phenformin; first compound 0.05 µM) | relative viability (Axitinib + Phenformin; first compound 0.1581 µM) | relative viability (Axitinib + Phenformin; first compound 0.5 µM) | relative viability ([2]; first compound 31.62 µM) |
| --- | --- | --- | --- | --- | --- | --- | --- | --- | --- | --- | --- | --- | --- | --- | --- | --- | --- | --- | --- | --- |
| LK-2 | 0.192 | 0.213 | 0.185 | 0.17 | 0.169 | 0.249 | 0.246 | 0.28 | 0.307 | 0.773 | 0.631 | 0.515 | 0.726 | 0.547 | 0.674 | 0.202 | 0.481 | 0.353 | 0.293 | – |
| EPLC-272H | 0.227 | 0.307 | 0.245 | 0.244 | 0.256 | 0.236 | 0.344 | 0.324 | 0.379 | 0.312 | 0.273 | 0.255 | 0.249 | 0.289 | 0.324 | 0.326 | 0.341 | 0.279 | 0.304 | 0.279 |
| NCI-H441 | 0.524 | 0.662 | 0.614 | – | 0.542 | 0.556 | 0.574 | 0.498 | 0.613 | 0.521 | 0.404 | 0.331 | 0.485 | 0.567 | 0.929 | 0.803 | 0.882 | 0.76 | 0.834 | – |
| NCI-H23 | 0.627 | 0.535 | 0.446 | – | 0.535 | 0.887 | 0.675 | 0.741 | 0.456 | 0.45 | 0.373 | 0.433 | 0.405 | 0.368 | 0.577 | 0.842 | 0.857 | 0.708 | 0.847 | – |
| NCI-H647 | 0.589 | 0.757 | 0.556 | 0.517 | 0.57 | 0.218 | 0.17 | 0.141 | 0.153 | 0.587 | 0.484 | 0.49 | 0.407 | 0.506 | 0.663 | 0.498 | 0.558 | 0.504 | 0.893 | 0.153 |
| LXF-289 | 0.53 | 0.766 | 0.737 | 0.68 | 0.729 | 0.204 | 0.201 | 0.172 | 0.145 | 0.703 | 0.644 | 0.683 | 0.684 | 0.701 | 0.534 | 0.518 | 0.526 | 0.508 | 0.516 | 0.167 |
| NCI-H596 | 0.809 | 0.65 | 0.557 | 0.588 | 0.621 | 0.54 | 0.588 | 0.583 | 0.503 | 0.881 | 0.625 | 0.835 | 0.8 | 0.895 | 0.735 | 0.784 | 0.841 | 0.746 | 0.638 | 0.494 |
